Results: patent US7812042B2, “Pharmaceutical compositions and therapeutic applications for the use of a novel vitamin B12 derivative, N-acetyl-L-cysteinylcobalamin” (priority 2006, dated 2010)
Values joined by “and” are separate entries in the source; they are usually repeats but may differ in a detail not shown here. Equal entries are not always repeated.

Key:
Hsp32 = Hsp32 gene expression in SK-HEP-1 cells (RT-PCR, densitometry); type: cell-based, Human; details: homocysteine 30 μM, folate 30 μM (2 hr), Sn(IX) protoporphyrin 25 μM, quercitin 15 μM
Description: Cells were plated into 6-, 12-, or 24-well cell culture clusters, at 2×10^3, 2×10^5, or 1×10^5 cells per well and incubated until 90% confluent. Treatments were applied as above.
Following incubation, cells were subjected to mRNA extraction followed by cDNA synthesis for each sample under test. Polymerase chain reaction cDNA templates were prepared for simplex PCR protocol. PCR products were then visualized using a UV Transilluminator and images captured using a Kodak ID gel imaging system. Densitometry and statistical analysis was then performed on each gene expression band image using PSP® v 10.0 running under Windows XP®.
mRNA extraction was performed using the Quickprep micro mRNA Purification Kit. Following incubation of cells post-treatment, the media was removed from the cells, adherent cells were re-suspended in 0.4 ml extraction buffer and 0.8 ml elution buffer at 65° C. was added.
A reaction mixture was prepared in individual microcentrifuge tubes containing 2 cDNA synthesis beads, 32 μl of the mRNA solution and 1 μl of pd(N)6. This mixture was incubated at 37° C. in a water bath for 60 minutes. After incubation, 27 μl of RNase-free DEPC treated water was added to each tube to make a total volume 60 μl. cDNA samples were prepared in duplicate. Sample 1 was used immediately in RT-PCR protocol. Sample 2 was prepared for qPCR protocol by the addition of 150 μl of 95% ice-cold ethanol and stored at −20° C.
Microcentrifuge tubes from puReTaq™Ready-To-Go™ PCR Beads containing one PCR bead were labeled for each sample required. Added to the PCR bead were 17 μl of RNase-free DEPC treated water, 1 μl sense primer, 1 μl anti-sense primer and 5 μl of the cDNA solution. RT-PCR conditions were as follows: Hsp70 and β-actin, pre-treatment step, 94° C. for 1 minute, followed by denaturing at 92° C. for 1 minute, annealing at 60° C. for 1 minute and extension at 72° C. for 1 minute. Total cycles, 30, post-treatment was then carried out at 72° C. for 10 minutes. For Hsp32, pre-treatment step, 95° C. for 2 minutes, followed by denaturing at 94° C. for 30 seconds, annealing at 58° C. for 1 minute and extension at 72° C. for 1 minute. Total cycles 45, post treatment was then carried out at 72° C. for 10 minutes. Following RT-PCR, samples were stored at −20° C.
Amplification products were separated on a 1.8% agarose gel (m/v) in TAE buffer. The size of the PCR products was determined by comparison to DNA fragments of a well-defined size; therefore, 5 μl of the DNA Ladder was carefully pipetted into the first well of the gel. Successive 10 μl of each PCR sample was then pipetted into subsequent wells on the agarose gel. The gel was connected to the Power Pack and run at 100V for 30 minutes.
Gels were visualised on a UV Transilluminator. Photographs were stored using a Kodak Digital camera system fitted with a UV filter set connected to a PC. Images were then transferred to the Kodak ID gel imaging system. Densitometry was performed on each gene expression band using PSP™ v10 running under Windows XP®.
Experiments were conducted using Hsp32 and Hsp 70 gene expression as the basis for study. […] (all treatments for 2 hours).

SK-HEP-1 cells [1] = experiment: NACCbl protection from homocysteine with Hsp32/Hsp70 inhibited by Sn(IX) protoporphyrin, quercitin or siRNA (MTS assay); type: cell-based, Human; details: for cell viability (MTS), raw readings (FIG. 11): NACCbl 30 μM pre-treatment two hours with/without Sn(IX)PP, quercetin, replicates 1-6
Description: siRNAs for human HO-1 were synthesised in 2′-deprotected, duplexed, desalted and purified form by Dharmacon Research Inc., published sequences from Zhang et al., (Zhang, Shan et al. 2004). Human Hsp70 primers were from proprietary sequences, and all control non-targeting primer sequences were also synthesised by Dharmacon Research Inc.
Transfection was optimised using a standard siControl Tox protocol. All transfection experiments included non-targeted siRNA.
Cells were trypsinized and plated into 12- or 96-well plates at cell density of 2×10^5, then incubated for 24 hours until adherent. Complexed siRNA and transfection agent at 100 nm was added directly to each experimental well. Plates were incubated at 37° C. for 32.5 hours for mRNA gene analysis experiments or 72 hours for protein analysis by Western Blot.
Complexed siRNA and transfection agent was added to each well of either 12- or 96-well plates. Cells were then trypsinized and added directly into each test well at cell density of 2×10^5. Plates were incubated at 37° C. for 32.5 hours for mRNA gene analysis experiments or 72 hours for protein analysis by Western Blot.
Hsp32 was inhibited using either Sn (IX) protoporhyrin or using an siRNA which specifically knocks out Hsp32. Hsp70 was inhibited using quercitin or using an siRNA which specifically knocks out Hsp70. In addition, two methods were used to inhibit both Hsp32 and Hsp70: chemically Sn (IX) protoporphyrin plus quercitin was used; and then, directly, a combination of the siRNA for both genes was used simultaneously.

SK-HEP-1 cells [2] = experiment: Effect of high concentrations of NACCbl and GSCbl on SK-HEP-1 cells (MTS assay); type: cell-based, Human; design: cell viability (MTS), raw readings (FIG. 13): reference not given here; details: 24 hours; for cell viability (MTS), raw readings (FIG. 13): 3 replicates
U937 (monocytes) = experiment: Survival of U937 cells at variable concentration of Hcy; type: cell-based; details: NACCbl 30 μM, NAC 75 μM, CNCbl 15 μM, folate 30 μM; especially at higher homocysteine concentrations
Description: (§1) Additional cell studies were conducted using Jurkat (T-cells) and U937 (monocyte) cell lines. These experiments confirmed that other cell types are killed by homocysteine, although these cell lines are not as sensitive as the SK-HEP-1 cell line discussed in the experiments above and are thus more resistant to homocysteine. Cells were exposed to NACCbl 30 μM, NAC 75 μM, CNCbl 15 μM, and folate 30 μM. […] In these Figures, the monocytes are N=6 and concentrations are as follows: NACCbl 30 μM, NAC 75 μM, CNCbl 15 μM, Folate 30 μM

Jurkat (T-cells) = experiment: Survival of Jurkat cells at variable concentration of Hcy; type: cell-based; details: NACCbl 30 μM, NAC 75 μM, CNCbl 15 μM, folate 30 μM; especially at higher homocysteine concentrations
Description: as §1

How did the “effect on Hsp32 gene expression” value (Hsp32) turn out when `CC(=O)NC(C[S-])C(=O)O.CC1=C2N=C(C=C3N=C(C(C)=C4[N-]C(C(CC(N)=O)C4(C)CCC(=O)NCC(C)OP(=O)([O-])OC4C(CO)OC(n5cnc6cc(C)c(C)cc65)C4O)C4(C)N=C1C(CCC(N)=O)C4(C)CC(N)=O)C(CCC(N)=O)C3(C)C)C(CCC(N)=O)C2(C)CC(N)=O.[Co+3]` [NACCbl, N-acetyl-L-cysteinylcobalamin] was run?
Its value is “induce Hsp32”.

What about the “cell viability (MTS), raw readings (FIG. 11)” value (shortened to “cell viability … (FIG. 11)”) (SK-HEP-1 cells [1]; Hcy 0) of the same compound?
Its value is 2.885 and 2.698 and 2.821 and 2.771 and 2.691 and 2.7.

What about the “cell viability … (FIG. 11)” value (SK-HEP-1 cells [1]; Hcy 1.78 (μM) two hours, where named) of the same compound?
The value was 2.647 and 2.551 and 2.789 and 2.89 and 2.549 and 2.611.

What about the “cell viability … (FIG. 11)” value (SK-HEP-1 cells [1]; Hcy 3.125 (μM) two hours, where named) of the same compound?
The value was 2.453 and 2.338 and 2.36 and 2.317 and 2.418 and 2.535.

And the “cell viability … (FIG. 11)” value (SK-HEP-1 cells [1]; Hcy 6.25 (μM) two hours, where named)?
The value was 2.41 and 2.4 and 2.322 and 2.201 and 2.115 and 2.187.

And the “cell viability … (FIG. 11)” value (SK-HEP-1 cells [1]; Hcy 12.5 (μM) two hours, where named)?
Its value is 2.21 and 2.11 and 2.045 and 2.065 and 2.101 and 2.324.

What about the “cell viability … (FIG. 11)” value (SK-HEP-1 cells [1]; Hcy 25 (μM) two hours, where named) of the same compound?
The value was 2.1 and 2.19 and 1.879 and 1.937 and 1.779 and 1.837.

What about the “cell viability … (FIG. 11)” value (SK-HEP-1 cells [1]; Hcy 50 (μM) two hours, where named) of the same compound?
The value was 1.678 and 1.832 and 1.881 and 1.73 and 1.74 and 1.855.

And the “cell viability … (FIG. 11)” value (SK-HEP-1 cells [1]; Hcy 100 (μM) two hours, where named)?
The value was 1.678 and 1.592 and 1.694 and 1.773 and 1.732 and 1.639.

And the “cell viability … (FIG. 11)” value (SK-HEP-1 cells [1]; Hcy 200 (μM) two hours, where named)?
Its value is 1.378 and 1.167 and 1.33 and 1.456 and 1.491 and 1.537.

What about the “effect of inhibition of both Hsp32 and Hsp70 together on protection by NACCbl” value (SK-HEP-1 cells [1]; both methods (chemically and directly), NACCbl 30 μM) of the same compound?
The value was “totally removed protection”.

What about the survival (SK-HEP-1 cells [2]; 10 mM) of the same compound?
Its survival is “over 60%”.

And the “cell viability (MTS), raw readings (FIG. 13)” value (from here on “cell viability … (FIG. 13)”) (SK-HEP-1 cells [2]; compound conc. 0.61 (μM scale))?
Its value is 2.572 and 2.498 and 2.473.

And the “cell viability … (FIG. 13)” value (SK-HEP-1 cells [2]; compound conc. 1.22 (μM scale))?
The value was 2.546 and 2.524 and 2.538.

And the “cell viability … (FIG. 13)” value (SK-HEP-1 cells [2]; compound conc. 2.441 (μM scale))?
The value was 2.592 and 2.536 and 2.499.

And the “cell viability … (FIG. 13)” value (SK-HEP-1 cells [2]; compound conc. 4.882 (μM scale))?
Its value is 2.532 and 2.463 and 2.457.

What about the “cell viability … (FIG. 13)” value (SK-HEP-1 cells [2]; compound conc. 9.765 (μM scale)) of the same compound?
Its value is 2.505 and 2.474 and 2.514.

And the “cell viability … (FIG. 13)” value (SK-HEP-1 cells [2]; compound conc. 19.531 (μM scale))?
Its value is 2.485 and 2.466 and 2.502.

What about the “cell viability … (FIG. 13)” value (SK-HEP-1 cells [2]; compound conc. 39.062 (μM scale)) of the same compound?
Its value is 2.503 and 2.474 and 2.453.

What about the “cell viability … (FIG. 13)” value (SK-HEP-1 cells [2]; compound conc. 78.125 (μM scale)) of the same compound?
The value was 2.521 and 2.488 and 2.475.

What about the “cell viability … (FIG. 13)” value (SK-HEP-1 cells [2]; compound conc. 156.25 (μM scale)) of the same compound?
The value was 2.484 and 2.42 and 2.492.

And the “cell viability … (FIG. 13)” value (SK-HEP-1 cells [2]; compound conc. 312.5 (μM scale))?
Its value is 2.409 and 2.301 and 2.437.

What about the “cell viability … (FIG. 13)” value (SK-HEP-1 cells [2]; compound conc. 625 (μM scale)) of the same compound?
Its value is 2.358 and 2.242 and 2.347.

What about the “cell viability … (FIG. 13)” value (SK-HEP-1 cells [2]; compound conc. 1250 (μM scale)) of the same compound?
The value was 2.2 and 2.055 and 2.3.

And the “cell viability … (FIG. 13)” value (SK-HEP-1 cells [2]; compound conc. 2500 (μM scale))?
The value was 1.989 and 1.891 and 2.085.

And the “cell viability … (FIG. 13)” value (SK-HEP-1 cells [2]; compound conc. 5000 (μM scale))?
The value was 2.081 and 2.003 and 2.004.

And the “cell viability … (FIG. 13)” value (SK-HEP-1 cells [2]; compound conc. 10000 (= 10 mM))?
Its value is 1.908 and 1.82 and 1.732.

What about the “protection of U937 cells from death by homocysteine, comparison” value (U937 (monocytes)) of the same compound?
The value was “more effective at protecting these cells from death than NAC, CN Cbl or folate”.

What about the “protection of Jurkat cells from death by homocysteine, comparison” value (Jurkat (T-cells)) of the same compound?
The value was “more effective at protecting these cells from death than NAC, CN Cbl or folate”.
